Measured values as given in patent US10821106B2, “Composition and methods of use of novel phenylalanine small organic compounds to directly modulate PCSK9 protein activity” (SRX Cardio, LLC, priority 2015, dated 2020).

Tests used:
recombinant PCSK9 [1] = target: T1, recombinant PCSK9 (Homo sapiens, UniProt Q8NBP7); experiment: DiI-LDL Uptake Assay in HepG2 cells; type: cell-based; conditions: 2.5 ug/mL PCSK9, DiI-LDL 5 ug/ml, read-out: Uptake Assay: % Inhibition of 2.5 ug/mL recombinant PCSK9 @ X compound dose; for inhibition at 1.25 µM: 1.25 uM compound
T1 sequence (Q8NBP7 153-692): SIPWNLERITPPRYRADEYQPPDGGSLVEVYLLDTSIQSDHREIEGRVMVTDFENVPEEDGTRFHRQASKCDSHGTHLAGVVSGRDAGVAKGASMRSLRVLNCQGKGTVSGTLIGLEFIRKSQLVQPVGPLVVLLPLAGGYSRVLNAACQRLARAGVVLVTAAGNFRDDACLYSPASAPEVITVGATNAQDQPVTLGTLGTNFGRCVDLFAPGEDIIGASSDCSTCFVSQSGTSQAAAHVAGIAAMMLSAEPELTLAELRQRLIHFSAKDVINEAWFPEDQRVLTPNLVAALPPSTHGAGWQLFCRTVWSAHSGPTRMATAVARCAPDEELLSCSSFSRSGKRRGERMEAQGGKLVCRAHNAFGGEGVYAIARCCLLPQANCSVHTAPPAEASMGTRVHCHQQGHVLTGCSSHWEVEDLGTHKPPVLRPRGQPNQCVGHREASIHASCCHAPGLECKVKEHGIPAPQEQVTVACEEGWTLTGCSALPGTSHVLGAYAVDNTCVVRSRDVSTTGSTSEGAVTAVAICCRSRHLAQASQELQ
Method: The cells were incubated in a 96-well plate for a total of 16 h in the absence or presence of recombinant PCSK9 (final concentration 2.5 ug/ml) protein alone or recombinant PCSK9 protein pre-mixed with indicated concentration of experimental compounds (Cmpd #). After 16 h, DiI-LDL (final concentration 5 ug/ml) was added to the incubation mixtures. After 4 h, cells are stained with Hoechst 33342 for 30 minutes, then rinsed with phosphate buffered saline, and then a final volume of 100 ul phosphate buffered saline was added to each well. The fluorescence was measured (DiI: excitation at 550 nm and emission at 590 nm; Hoechst: excitation at 355 nm, emission at 460 nm). The percent recombinant PCSK9 inhibition was calculated as [‘Compound Dose DiI Fluorescence’-‘2.5 ug/ml PCSK9-treated DiI Fluorescence’]/[‘No PCSK9 DiI Fluorescence’-‘2.5 ug/ml PCSK9-treated DiI Fluorescence’]×100%.
Cellular DiI-LDL uptake can be measured using protocols adapted from Benjannet et al., “Effects of the prosegment and pH on the activity of PCSK9: evidence for additional processing events” J Biol Chem. 285(52): 40965-40978 (2010) and “Composition and Methods of Use of Small Molecules as Binding Ligands for the Modulation of Proprotein Convertase Subtilisin/Kexin Type 9 (PCSK9) Protein Activity” (WO2016029037), which are incorporated by reference in their entirety.
Cells, such as HepG2, HuH7, FL83B, or a cell line transfected with a short-hairpin PCSK9 knockdown sequence such as HepG2/shPCSK9, HuH7/shPCSK9, or FL83B/shPCSK9 are plated and cultured at 37° C. for 12-24 h. Culture media is removed and replaced with fresh lipoprotein-depleted culture media supplemented with 5 ug/mL of DiI-LDL (Kalen Biomedical) or lipoprotein-depleted culture media supplemented with 5 ug/mL of DiI-LDL plus a predetermined concentration of recombinant PCSK9, for example a 10 nM final concentration of PCSK9. Lipoprotein-depleted culture media can be composed of DMEM (Invitrogen) with 10% lipoprotein-depleted fetal bovine serum (Kalen Biomedical) and supplemented with penicillin-streptomycin (Life Technologies). Cells are dosed with small molecule test compounds at doses ranging from 0 nM to 100 uM.
Following an incubation period of specified length, such as 6 hours, Hoechst 33342 (AnaSpec) stain is added to the cell media per manufacturer's instructions and incubated for a specified length (e.g., 30 minutes). The lipoprotein-depleted media is removed and cells rinsed three times with phosphate buffered saline. A final volume of phosphate buffered saline is added back to the wells. The DiI fluorescence is measured with a plate reader using an exciting wavelength of 550 nm and the resulting emission at 590 nm is measured. The Hoechst stain fluorescence is measured with a plate reader using an exciting wavelength of 355 nm and the resulting emission at 460 nm is measured.
Cells are analyzed by for both Hoechst stain (DNA content) and DiI-LDL fluorescence. Cells incubated with small molecule compounds that are inhibitors of PCSK9 will be expected to show increased amounts of DiI-LDL fluorescence, relative to control (no compound) specimens, and cells incubated with small molecule compounds that are activators of PCSK9 will be expected to show decreased amounts of DiI-LDL fluorescence relative to control (no compound) specimens.

recombinant PCSK9 [2] = target: T1, recombinant PCSK9; experiment: LDLR Flow / FACS Assay in HuH7 cells; type: cell-based; conditions: 5.0 ug/mL PCSK9, 6 h, read-out: LDLR Flow Assay: % Inhibition of 5.0 ug/mL recombinant PCSK9 @ X compound dose; for inhibition at 1.25 µM: Huh-7, 1.25 uM compound
Method: The cells were incubated in 24-well plates for a total of 6 h in the absence or presence of recombinant PCSK9 protein (final concentration of 5.0 ug/ml), or in the presence of PCSK9 protein mixed with indicated concentration of experimental compound (Cmpd #). After 6 hours, the cells were released from the plate, stained with anti-LDLR antibody, then rinsed, counterstained with DAPI, and then measured by fluorescence activated cell sorting (FACS). The percent recombinant PCSK9 inhibition was calculated as [‘Compound Dose LDLR Fluorescence’-‘5.0 ug/ml PCSK9-treated LDLR Fluorescence’]/[‘No PCSK9 Basal LDLR Fluorescence’-‘5.0 ug/ml PCSK9-treated LDLR Fluorescence’]×100%.
LDLR levels can be measured using flow cytometry or fluorescence activated cell sorting (FACS) using protocols adapted from Benjannet et al., “Effects of the prosegment and pH on the activity of PCSK9: evidence for additional processing events” J Biol Chem. 285(52): 40965-40978 (2010) and “Composition and Methods of Use of Small Molecules as Binding Ligands for the Modulation of Proprotein Convertase Subtilisin/Kexin Type 9 (PCSK9) Protein Activity” (WO2016029037), which are incorporated by reference in their entirety.
Cells, such as HepG2, HuH7, FL83B, or a cell line transfected with a short-hairpin PCSK9 knockdown sequence such as HepG2/shPCSK9, HuH7/shPCSK9, or FL83B/shPCSK9 are plated and cultured at 37° C. for 12-24 h. Culture media is removed and replaced with fresh culture media or culture media plus a predetermined amount of recombinant PCSK9, for example a 10 nM final concentration of PCSK9. Cell culture media can be composed of DMEM (Invitrogen) with 10% fetal bovine serum (Life Technologies) supplemented with penicillin-streptomycin (Life Technologies). Cells are dosed with small molecule test compounds at doses ranging from 0 nM to 100 uM […]
Cells are analyzed for both cell viability marker (dead cells) and LDLR in live cells using a flow cytometer per the manufacturer's operating manual. […]

| Compound | inhibition at 1.25 µM (recombinant PCSK9 [1]) [%] | inhibition at 1.25 µM (recombinant PCSK9 [2]) [%] | inhibition at 10 µM (recombinant PCSK9 [1]; 10 uM compound) [%] | inhibition at 10 µM (recombinant PCSK9 [2]; Huh-7, 10 uM compound) [%] |
| --- | --- | --- | --- | --- |
| CC(C)NC(=O)[C@@H](N)Cc1ccc(-c2cccc(O)c2)cc1 [Compound 3, (S)-2-amino-3-(3′-hydroxy-[1,1′-biphenyl]-4-yl)-N-isopropylpropanamide] | ~44 |  |  |  |
| Cc1cc(C[C@H](N)C(=O)NC(C)C)ccc1-c1cccc(O)c1 [Compound 4, (S)-2-amino-3-(3′-hydroxy-2-methyl-[1,1′-biphenyl]-4-yl)-N-isopropylpropanamide] | ~28 | ~10 |  |  |
| CC(C)NC(=O)[C@@H](N)Cc1ccc(-c2ccccc2)cc1 [Compound 1, (S)-3-([1,1′-biphenyl]-4-yl)-2-amino-N-isopropylpropanamide] | ~15 | ~15 | > 100 | ~55 |
| CC(C)NC(=O)[C@@H](N)Cc1ccc(-c2cc[nH]c(=O)c2)cc1 [Compound 2, (S)-2-amino-N-isopropyl-3-(4-(2-oxo-1,2-dihydropyridin-4-yl)phenyl)propanamide] | ~40 |  |  |  |
